From paper doi:10.1101/2023.03.24.534094v2 (biorxiv, 2023) come the findings set out here.

Like-named read-outs stand apart in the source and are kept apart here.

Common to all, as to test: biochemical
Assay [1] addresses MST3 (Homo sapiens, UniProt Q9Y6E0).
The target of assay [2] is T1, Wnk1 (Homo sapiens, UniProt Q9H4A3).
In assay [3] the target is T2, MST1 (Homo sapiens, UniProt Q13043).
T2 sequence (Q13043 1-487): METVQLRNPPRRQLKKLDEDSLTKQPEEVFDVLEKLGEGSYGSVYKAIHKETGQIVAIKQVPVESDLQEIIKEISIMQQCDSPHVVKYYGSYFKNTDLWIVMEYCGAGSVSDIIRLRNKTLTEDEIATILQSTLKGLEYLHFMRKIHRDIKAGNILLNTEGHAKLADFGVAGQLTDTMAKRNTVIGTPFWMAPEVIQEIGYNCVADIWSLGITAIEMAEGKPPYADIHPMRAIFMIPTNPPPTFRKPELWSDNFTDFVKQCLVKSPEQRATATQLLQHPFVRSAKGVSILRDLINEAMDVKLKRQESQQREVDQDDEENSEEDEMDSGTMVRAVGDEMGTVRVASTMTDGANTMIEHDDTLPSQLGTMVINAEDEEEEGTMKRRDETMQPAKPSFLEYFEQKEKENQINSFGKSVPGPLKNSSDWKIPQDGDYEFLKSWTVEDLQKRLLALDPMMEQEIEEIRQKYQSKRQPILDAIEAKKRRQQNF

Assay [4] concerns the target PAK1 (Homo sapiens, UniProt Q13153).
Assay [5] addresses EphA7 (Homo sapiens, UniProt Q15375).
Assay [6] concerns the target T3, TLK1 (Homo sapiens, UniProt Q9UKI8).
T3 sequence (Q9UKI8 1-766): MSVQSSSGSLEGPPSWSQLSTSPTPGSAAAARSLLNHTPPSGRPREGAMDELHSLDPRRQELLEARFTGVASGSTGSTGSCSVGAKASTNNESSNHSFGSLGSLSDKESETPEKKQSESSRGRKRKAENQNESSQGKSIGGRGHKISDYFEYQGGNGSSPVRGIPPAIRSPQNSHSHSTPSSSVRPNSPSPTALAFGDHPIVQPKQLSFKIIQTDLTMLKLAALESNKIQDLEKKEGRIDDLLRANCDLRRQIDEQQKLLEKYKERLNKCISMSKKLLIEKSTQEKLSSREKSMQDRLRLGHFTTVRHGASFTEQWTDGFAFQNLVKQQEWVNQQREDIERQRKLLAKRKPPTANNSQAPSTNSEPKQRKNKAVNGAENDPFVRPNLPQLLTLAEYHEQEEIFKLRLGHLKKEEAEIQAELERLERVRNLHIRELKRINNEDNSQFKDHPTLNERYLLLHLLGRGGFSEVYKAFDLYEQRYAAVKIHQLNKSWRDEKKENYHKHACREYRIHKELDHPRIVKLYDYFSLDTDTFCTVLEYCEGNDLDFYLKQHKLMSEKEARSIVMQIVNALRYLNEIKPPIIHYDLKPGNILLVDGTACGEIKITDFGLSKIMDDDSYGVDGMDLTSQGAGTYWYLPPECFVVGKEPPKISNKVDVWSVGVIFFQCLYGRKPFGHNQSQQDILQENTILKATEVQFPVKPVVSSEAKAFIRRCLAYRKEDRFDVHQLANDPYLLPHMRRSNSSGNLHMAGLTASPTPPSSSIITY

Assay [7] addresses T4, PLK4 (Homo sapiens, UniProt O00444).
T4 sequence (O00444 1-970): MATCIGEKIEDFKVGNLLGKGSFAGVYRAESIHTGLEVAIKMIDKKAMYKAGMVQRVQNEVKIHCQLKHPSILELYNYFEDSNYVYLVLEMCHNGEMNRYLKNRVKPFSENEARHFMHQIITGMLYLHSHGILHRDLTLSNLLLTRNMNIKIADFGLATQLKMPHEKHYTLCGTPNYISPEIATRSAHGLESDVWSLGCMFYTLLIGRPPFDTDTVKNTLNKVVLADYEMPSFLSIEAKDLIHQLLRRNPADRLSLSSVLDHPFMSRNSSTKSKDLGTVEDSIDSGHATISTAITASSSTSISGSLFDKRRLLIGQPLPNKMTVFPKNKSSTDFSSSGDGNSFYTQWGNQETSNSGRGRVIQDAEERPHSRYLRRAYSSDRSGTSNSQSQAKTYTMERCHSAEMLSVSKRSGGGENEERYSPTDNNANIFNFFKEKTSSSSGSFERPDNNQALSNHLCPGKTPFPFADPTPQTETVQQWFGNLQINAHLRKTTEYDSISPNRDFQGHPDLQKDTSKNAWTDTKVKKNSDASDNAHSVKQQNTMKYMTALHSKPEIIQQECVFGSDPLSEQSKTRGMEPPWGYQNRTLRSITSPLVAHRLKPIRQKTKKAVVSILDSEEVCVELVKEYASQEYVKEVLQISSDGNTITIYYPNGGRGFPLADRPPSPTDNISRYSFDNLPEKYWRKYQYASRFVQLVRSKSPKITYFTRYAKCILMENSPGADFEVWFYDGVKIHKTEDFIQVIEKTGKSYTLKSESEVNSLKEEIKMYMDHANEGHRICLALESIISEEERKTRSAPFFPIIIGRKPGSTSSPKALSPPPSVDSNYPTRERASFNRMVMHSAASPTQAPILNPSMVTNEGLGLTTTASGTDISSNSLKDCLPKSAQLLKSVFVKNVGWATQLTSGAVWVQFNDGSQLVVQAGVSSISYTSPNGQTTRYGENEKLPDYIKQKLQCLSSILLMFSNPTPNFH

Assay [8] addresses PIM1 (Homo sapiens, UniProt P11309).
The target in assay [9] is T1, Wnk1. The source holds these as a separate data set.

T1 sequence (Q9H4A3 whole entry): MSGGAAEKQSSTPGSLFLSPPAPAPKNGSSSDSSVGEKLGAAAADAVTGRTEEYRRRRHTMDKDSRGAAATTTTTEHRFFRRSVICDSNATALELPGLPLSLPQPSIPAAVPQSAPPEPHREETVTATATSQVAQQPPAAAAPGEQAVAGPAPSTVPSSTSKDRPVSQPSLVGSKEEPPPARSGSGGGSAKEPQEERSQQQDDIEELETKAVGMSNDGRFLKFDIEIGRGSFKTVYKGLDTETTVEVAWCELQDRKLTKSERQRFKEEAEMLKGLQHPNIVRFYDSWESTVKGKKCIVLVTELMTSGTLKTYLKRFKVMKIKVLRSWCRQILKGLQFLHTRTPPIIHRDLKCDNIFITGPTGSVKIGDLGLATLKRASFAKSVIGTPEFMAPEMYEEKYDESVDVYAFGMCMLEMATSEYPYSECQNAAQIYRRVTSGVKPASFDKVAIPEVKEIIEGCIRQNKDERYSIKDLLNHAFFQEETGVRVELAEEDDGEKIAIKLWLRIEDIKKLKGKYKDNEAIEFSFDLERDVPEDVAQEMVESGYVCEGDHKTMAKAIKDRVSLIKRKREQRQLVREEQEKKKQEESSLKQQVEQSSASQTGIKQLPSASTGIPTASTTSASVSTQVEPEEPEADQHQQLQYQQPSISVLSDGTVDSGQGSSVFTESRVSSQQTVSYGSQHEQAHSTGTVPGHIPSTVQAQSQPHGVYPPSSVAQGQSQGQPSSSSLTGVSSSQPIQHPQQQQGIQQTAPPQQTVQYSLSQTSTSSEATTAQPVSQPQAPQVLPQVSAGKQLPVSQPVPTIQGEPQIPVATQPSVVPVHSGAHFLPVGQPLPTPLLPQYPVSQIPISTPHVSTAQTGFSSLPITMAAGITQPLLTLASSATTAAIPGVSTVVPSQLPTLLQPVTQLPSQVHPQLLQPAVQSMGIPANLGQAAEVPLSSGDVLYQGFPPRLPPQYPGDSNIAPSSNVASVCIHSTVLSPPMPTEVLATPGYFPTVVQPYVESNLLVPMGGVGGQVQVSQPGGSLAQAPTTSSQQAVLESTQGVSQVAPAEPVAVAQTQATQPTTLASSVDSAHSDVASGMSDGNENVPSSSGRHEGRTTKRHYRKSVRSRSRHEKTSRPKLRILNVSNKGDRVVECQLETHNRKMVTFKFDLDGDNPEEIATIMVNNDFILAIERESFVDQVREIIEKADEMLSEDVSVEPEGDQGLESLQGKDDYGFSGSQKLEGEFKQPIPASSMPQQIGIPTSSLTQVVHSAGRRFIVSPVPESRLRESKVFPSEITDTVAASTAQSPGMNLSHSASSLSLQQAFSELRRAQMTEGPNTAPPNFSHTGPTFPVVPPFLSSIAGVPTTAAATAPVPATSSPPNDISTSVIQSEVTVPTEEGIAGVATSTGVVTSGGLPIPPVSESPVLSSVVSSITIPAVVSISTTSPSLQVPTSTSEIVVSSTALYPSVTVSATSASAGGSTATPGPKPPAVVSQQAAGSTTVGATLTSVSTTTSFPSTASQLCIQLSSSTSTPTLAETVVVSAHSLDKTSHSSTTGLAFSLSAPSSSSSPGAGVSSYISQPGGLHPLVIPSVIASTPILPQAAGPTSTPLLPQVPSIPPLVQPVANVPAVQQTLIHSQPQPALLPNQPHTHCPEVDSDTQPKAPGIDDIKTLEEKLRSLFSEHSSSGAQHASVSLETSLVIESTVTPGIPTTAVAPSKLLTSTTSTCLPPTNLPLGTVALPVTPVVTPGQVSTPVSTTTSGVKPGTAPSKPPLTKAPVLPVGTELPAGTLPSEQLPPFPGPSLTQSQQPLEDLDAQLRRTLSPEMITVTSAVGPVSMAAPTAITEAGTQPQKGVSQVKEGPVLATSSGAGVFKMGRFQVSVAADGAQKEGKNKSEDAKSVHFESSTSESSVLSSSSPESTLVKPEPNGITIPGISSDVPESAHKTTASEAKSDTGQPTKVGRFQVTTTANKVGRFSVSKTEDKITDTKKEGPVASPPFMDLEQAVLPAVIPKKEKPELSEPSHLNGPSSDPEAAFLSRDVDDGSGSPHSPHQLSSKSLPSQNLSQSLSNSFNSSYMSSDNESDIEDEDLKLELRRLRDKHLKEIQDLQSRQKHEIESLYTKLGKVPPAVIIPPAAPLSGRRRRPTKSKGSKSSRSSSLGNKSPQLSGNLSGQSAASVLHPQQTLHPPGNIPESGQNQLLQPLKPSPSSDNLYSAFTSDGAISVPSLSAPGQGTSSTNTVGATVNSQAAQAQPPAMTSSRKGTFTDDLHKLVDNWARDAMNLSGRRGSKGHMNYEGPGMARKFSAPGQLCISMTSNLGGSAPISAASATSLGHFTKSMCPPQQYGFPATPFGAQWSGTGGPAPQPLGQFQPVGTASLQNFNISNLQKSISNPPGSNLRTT
Sequence of PAK1 (Q13153 whole entry): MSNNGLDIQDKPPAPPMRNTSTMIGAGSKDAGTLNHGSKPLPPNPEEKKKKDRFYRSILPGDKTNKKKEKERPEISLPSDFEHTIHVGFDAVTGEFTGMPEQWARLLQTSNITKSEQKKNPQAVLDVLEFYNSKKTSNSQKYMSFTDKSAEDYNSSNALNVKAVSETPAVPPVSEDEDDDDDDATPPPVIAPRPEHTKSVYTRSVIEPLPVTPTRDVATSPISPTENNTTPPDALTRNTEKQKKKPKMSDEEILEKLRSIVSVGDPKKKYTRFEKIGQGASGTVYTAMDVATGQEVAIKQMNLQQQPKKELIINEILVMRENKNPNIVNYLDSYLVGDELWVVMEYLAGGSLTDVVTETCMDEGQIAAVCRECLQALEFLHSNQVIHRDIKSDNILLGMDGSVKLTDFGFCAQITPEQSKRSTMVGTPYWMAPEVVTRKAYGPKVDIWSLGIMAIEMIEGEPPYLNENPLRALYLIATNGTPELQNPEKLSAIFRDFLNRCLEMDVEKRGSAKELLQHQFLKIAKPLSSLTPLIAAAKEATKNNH
Sequence of MST3 (Q9Y6E0 whole entry): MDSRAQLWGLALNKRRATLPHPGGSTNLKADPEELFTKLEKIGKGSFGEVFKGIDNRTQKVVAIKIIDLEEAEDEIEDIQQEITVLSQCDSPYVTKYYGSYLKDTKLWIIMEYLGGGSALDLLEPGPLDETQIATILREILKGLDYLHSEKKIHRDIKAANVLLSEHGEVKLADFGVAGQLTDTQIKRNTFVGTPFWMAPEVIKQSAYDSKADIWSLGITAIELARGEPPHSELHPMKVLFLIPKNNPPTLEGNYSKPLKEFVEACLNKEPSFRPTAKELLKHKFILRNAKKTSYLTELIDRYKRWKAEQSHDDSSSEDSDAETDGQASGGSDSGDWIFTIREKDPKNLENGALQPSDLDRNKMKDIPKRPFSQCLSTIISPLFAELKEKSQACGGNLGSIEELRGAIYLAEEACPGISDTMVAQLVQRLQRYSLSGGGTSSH
Sequence of PIM1 (P11309 whole entry): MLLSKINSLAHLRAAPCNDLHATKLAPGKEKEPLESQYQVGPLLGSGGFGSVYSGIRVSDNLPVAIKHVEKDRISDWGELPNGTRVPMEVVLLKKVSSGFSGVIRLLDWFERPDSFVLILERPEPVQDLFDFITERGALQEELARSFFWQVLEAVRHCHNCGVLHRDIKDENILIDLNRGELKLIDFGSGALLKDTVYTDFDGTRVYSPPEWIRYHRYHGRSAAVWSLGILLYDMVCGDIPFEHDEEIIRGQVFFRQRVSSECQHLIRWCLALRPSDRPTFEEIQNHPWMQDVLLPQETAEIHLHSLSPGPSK
Sequence of EphA7 (Q15375 whole entry): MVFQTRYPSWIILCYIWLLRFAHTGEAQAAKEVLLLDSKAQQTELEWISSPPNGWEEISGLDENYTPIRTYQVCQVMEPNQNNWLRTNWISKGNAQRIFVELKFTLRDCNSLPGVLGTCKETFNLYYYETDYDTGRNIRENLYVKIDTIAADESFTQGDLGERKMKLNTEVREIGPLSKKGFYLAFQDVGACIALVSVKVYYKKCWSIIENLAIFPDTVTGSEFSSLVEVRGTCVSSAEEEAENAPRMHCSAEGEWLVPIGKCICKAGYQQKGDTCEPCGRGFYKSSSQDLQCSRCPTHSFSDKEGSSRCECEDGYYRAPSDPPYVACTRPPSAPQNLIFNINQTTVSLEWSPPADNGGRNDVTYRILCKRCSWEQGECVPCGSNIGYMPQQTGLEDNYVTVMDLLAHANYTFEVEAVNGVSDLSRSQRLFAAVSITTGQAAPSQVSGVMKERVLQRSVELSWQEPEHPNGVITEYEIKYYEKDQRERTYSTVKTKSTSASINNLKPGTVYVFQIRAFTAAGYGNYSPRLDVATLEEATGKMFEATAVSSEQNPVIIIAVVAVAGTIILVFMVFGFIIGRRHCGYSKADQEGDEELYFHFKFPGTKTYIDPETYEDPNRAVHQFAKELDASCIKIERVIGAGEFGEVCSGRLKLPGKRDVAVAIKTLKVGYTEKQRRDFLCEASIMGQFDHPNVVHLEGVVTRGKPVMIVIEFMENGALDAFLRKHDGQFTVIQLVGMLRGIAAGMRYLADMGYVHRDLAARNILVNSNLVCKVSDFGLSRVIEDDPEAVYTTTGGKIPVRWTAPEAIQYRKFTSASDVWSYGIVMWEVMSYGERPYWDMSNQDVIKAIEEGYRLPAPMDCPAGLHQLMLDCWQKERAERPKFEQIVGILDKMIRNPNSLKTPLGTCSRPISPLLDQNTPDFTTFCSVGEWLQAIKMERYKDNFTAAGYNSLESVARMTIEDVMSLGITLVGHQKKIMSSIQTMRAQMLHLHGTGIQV

For the compound `CNc1ncc2cc(-c3ccccc3Cl)c(=O)n(CCCCN)c2n1` [compound 4, 8-(4-Aminobutyl)-6-(2-chlorophenyl)-2-(methylamino)pyrido[2,3-d]pyrimidin-7(8H)-one], the ΔTm at 10 µM was 4.1 °C in [1] (read-out: ∆Tm MR21 (4)), -0.4 °C in [2] (read-out: ∆Tm MR21 (4)), 1.5 °C in assay [3] (read-out: ∆Tm MR21 (4)) and 1.6 °C in [4] (read-out: ∆Tm MR21 (4)).
Consider `CNc1ncc2cc(-c3cc(Cl)ccc3Cl)c(=O)n(CCCCN)c2n1` [compound 8, 8-(4-Aminobutyl)-6-(2,5-dichlorophenyl)-2-(methylamino)pyrido[2,3-d]pyrimidin-7(8H)-one], for which the ΔTm at 10 µM in [5] (read-out: dTm 8) worked out at 0.5 °C; in assay [6] (read-out: dTm 8) it was 1 °C; in [7] (read-out: dTm 8), 0.5 °C; in assay [8] (read-out: dTm 8) it was 0.8 °C; in assay [9] (read-out: dTm 8) it was 0.3 °C.
On to `CNc1ncc2cc(-c3cc(Br)ccc3Cl)c(=O)n(CCCCN)c2n1` [compound 6, 8-(4-Aminobutyl)-6-(5-bromo-2-chlorophenyl)-2-(methylamino)pyrido[2,3-d]pyrimidin-7(8H)-one], for which the ΔTm at 10 µM in assay [1] (read-out: ∆Tm 6) was 2.7 °C; in assay [2] (read-out: ∆Tm 6), 0 °C.
For the compound `CNc1ncc2cc(-c3ccc(-c4cccc(C)n4)cc3Cl)c(=O)n(CC3OCC(N)CO3)c2n1` (centres unmarked) [compound 2, G-5555], the “∆Tm G-5555 (2)” value in assay [1] (10 µM, binder) was found to be 7.5 degC; in assay [2] (10 µM, binder), 2.4 degC; in assay [3] (10 µM, binder), 4.5 degC; in [4] (10 µM, binder), 6.4 degC.
With `CNc1ncc2cc(-c3cc(Cl)ccc3Br)c(=O)n(CCCCN)c2n1` [compound 10, 8-(4-Aminobutyl)-6-(2-bromo-5-chlorophenyl)-2-(methylamino)pyrido[2,3-d]pyrimidin-7(8H)-one], the ΔTm at 10 µM in assay [5] (read-out: dTm 10) worked out at 0.5 °C; in assay [6] (read-out: dTm 10), 0.5 °C; in assay [7] (read-out: dTm 10) it was 0.4 °C; in assay [8] (read-out: dTm 10), 0.8 °C; in [9] (read-out: dTm 10) it was 0.3 °C.
Consider `CNc1ncc2cc(-c3cc(F)ccc3F)c(=O)n(CCCCN)c2n1` [compound 5, 8-(4-Aminobutyl)-6-(2,5-difluorophenyl)-2-(methylamino)pyrido[2,3-d]pyrimidin-7(8H)-one], for which the ΔTm at 10 µM was 1.6 °C in assay [1] (read-out: ∆Tm MR22 (5)), -0.1 °C in assay [2] (read-out: ∆Tm MR22 (5)) and -0.3 °C in [3] (read-out: ∆Tm MR22 (5)).
`CNc1ncc2cc(-c3cc(Br)ccc3Br)c(=O)n(CCCCN)c2n1` [compound 11, 8-(4-Aminobutyl)-6-(2,5-dibromophenyl)-2-(methylamino)pyrido[2,3-d]pyrimidin-7(8H)-one]: the ΔTm at 10 µM in [5] (read-out: dTm 11) was determined as 0.6 °C; in assay [6] (read-out: dTm 11), 1 °C; in [7] (read-out: dTm 11), 0.6 °C; in assay [8] (read-out: dTm 11), 0.6 °C; in assay [9] (read-out: dTm 11) it was 0.4 °C.
For the compound `CNc1ncc2cc(-c3cc(Br)ccc3Cl)c(=O)n(C[C@H]3OC[C@H](N)CO3)c2n1` [compound 7, 8-(((2r,5r)-5-Amino-1,3-dioxan-2-yl)methyl)-6-(5-bromo-2-chlorophenyl)-2-(methylamino)pyrido[2,3-d]pyrimidin-7(8H)-one], the ΔTm at 10 µM in assay [1] (read-out: ∆Tm 7) stood at 0.8 °C; in assay [2] (read-out: ∆Tm 7), 1.1 °C; in assay [4] (read-out: ∆Tm 7), 0.6 °C.
On to `CNc1ncc2cc(-c3cc(C(F)(F)F)ccc3Cl)c(=O)n(CCCCN)c2n1` [compound 9, 8-(4-Aminobutyl)-6-(2-chloro-5-(trifluoromethyl)phenyl)-2-(methylamino)pyrido[2,3-d]pyrimidin-7(8H)-one], for which the ΔTm at 10 µM in assay [5] (read-out: dTm 9) amounted to 0.6 °C; in assay [6] (read-out: dTm 9), 0.7 °C; in assay [7] (read-out: dTm 9) it was 0.3 °C; in assay [8] (read-out: dTm 9) it was 0.6 °C; in [9] (read-out: dTm 9) it was 0.1 °C.
Regarding `CNc1ncc2cc(-c3cc(F)c(-c4cccc(C)n4)cc3F)c(=O)n(CCCCN)c2n1` [compound 12, 8-(4-Aminobutyl)-6-(2,5-difluoro-4-(6-methylpyridin-2-yl)phenyl)-2-(methylamino)pyrido[2,3-d]pyrimidin-7(8H)-one], the ΔTm at 10 µM in [5] (read-out: dTm 12) is 2.3 °C; in assay [6] (read-out: dTm 12) it was -1.5 °C; in [7] (read-out: dTm 12) it was 6.3 °C; in assay [8] (read-out: dTm 12) it was 0.8 °C; in assay [9] (read-out: dTm 12), 1 °C.
